Here are results for 1 compound from ChEMBL document CHEMBL1147302, “Isolation and characterization of an antimalarial agent of the neem tree Azadirachta indica” (J Nat Prod, 1989).

Assay [1] has as its system Plasmodium falciparum. In words: Antimalarial activity against Plasmodium falciparum after 48 hrs by [3H]hypoxanthine uptake. Format: functional, organism-based.
Assay [2] relates to Plasmodium falciparum. The assay is described as follows: Antimalarial activity against Plasmodium falciparum after 96 hrs by [3H]hypoxanthine uptake. It counts as functional, organism-based.

The IC50 is the midpoint of a concentration-inhibition curve. Higher therefore signals lower potency.

In the case of `CC(=O)O[C@@H]1C[C@H]2C(C)(C)C(=O)C=C[C@]2(C)[C@H]2CC[C@@]3(C)[C@H](c4ccoc4)OC(=O)[C@H]4O[C@]43[C@@]21C` [GEDUNIN], the half-inhibitory concentration (IC50) amounted to 1000 nM in assay [1] and 300 nM in assay [2].
